Legend:
mouse podocytes = test: Scratch, wound-healing assay (podocyte migration); format: cell-based; conditions: PAN or LPS treatment, cotreatment, 48 hours
Experimental: The effect of identified novel compounds on podocyte migration was assessed using a classic scratch, wound-healing assay as described. (Mathieson, Nat Rev Nephrol, 2012.) Differentiated mouse podocytes per well were seeded overnight in type-I collagen coated wells of a 24 well plate. Each well was subsequently scratched using a sterile 200 μI pipette tip, washed and placed into fresh culture medium. Cells in wells were also treated with PAN, LPS, pyr or a combination, as described in the text. After 48 h, cells were fixed with 2% paraformaldehyde and stained with DAPI. Images of cells near scratched surfaces and their DAPI-stained nuclei were acquired using a 10× objective using a Zeiss Axio Observer D1 microscope (Carl Zeiss Group, Hartford, Conn.) and analyzed using ImageJ software (NIH). Images using transmitted light were also acquired at the beginning and the end of the experiment and were used to align images of pre- and post-treated cells for counting cells that had migrated into similar sized fields. The data shown represent the mean±SEM of three independent experiments.
Next, we assessed the efficacy of this small molecule in a functional assay. In vitro, PAN- or LPS-mediated injury promotes directional migration and wound closure by podocytes in a scratch wound-healing assay.

murine podocytes = test: Podocyte HCS phenotypic assay, PAN-induced podocyte injury; format: cell-based
Experimental: Conditionally immortalized human and murine podocytes were used in a majority of the assays. Human and murine podocytes were cultured as have been described previously (Saleem et al., JASN 13, 630-638 (2002); Mundel, Reiser et al., Experimental Cell Research, 236, p 248 (1997)). For example, murine podocytes derived from the mouse line H-2Kb-tsA58 were cultured under permissive conditions at 33° C. on rat-tail collagen coated dishes in RPMI medium supplemented with 10% heat inactivated FBS, penicillin and streptomycin (100 U/ml), and 10 U/ml recombinant mouse γ-interferon. Cells were then trypsinized and re-plated for differentiation at 37° C. in medium without γ-interferon. The cells were differentiated for 0 to 7 days and then reseeded to rat-tail collagen coated multi-well plates at a density of 1500/well or 500/well for 96 and 384 well plates, respectively. Cells were then further differentiated for another 5-14 days in the multi-well plates for subsequent experimentation with various reagents prior to fixation and analyses.
In some embodiments, podocytes were cultured at 37° C. for the first 7 days of differentiation in large tissue culture flasks and subsequently reseeded and further cultured at 37° C. in the 96-well assay plates for the next 4-6 days to provide low well-to-well variability in cell number in the assay plates and healthy podocytes expressing specific and well characterized podocyte markers synaptopodin and podocin.
Differentiated podocytes were cultured in 96-well or 384-well multiwall optical plates (PerkinElmer, Boston, Mass.). In some embodiments, differentiated podocytes were treated with various amounts of puromycin aminonucleoside (PAN), […] LPS, Adriamycin and other agents. In some embodiments, the cells were co-treated with chemical and other agents (such as mizouribine) to prevent damage from damaging agents (such as PAN). In other embodiments, the rescue agents were added 0-48 h after the addition of injury causing agents. In some embodiments, patient samples such as blood, serum, urine or other samples were added to differentiated podocytes to identify disease causing agents. In some embodiments, primary, differentiated patient podocytes were cultured to identify defects in structure and/or function.
After culturing for the appropriate time and treatment or control, cultured podocytes in multi-well optical plates were rinsed with phosphate buffered saline (PBS) and subsequently fixed using a solution of paraformaldehyde and sucrose in PBS (at a final concentration of 4% paraformaldehyde and 2% sucrose in PBS) for 30 min at room temperature. Following fixation, the cells were permeabilization using a solution of 0.3% Triton X-100 in PBS for 15 min at room temperature. For visualization of filamentous-actin (F-Actin) in cells, cells were stained with a solution of Alexa fluor 568 phalloidin (Invitrogen), as previously described. HCS CellMask Blue (Invitrogen) was used as a fluorescent stain for visualizing nuclei, cytoplasm and the individual cell boundaries. Additional proteins that were fluorescently labeled and analyzed using appropriate primary mAbs include synaptopodin (synpo, primary mAb from Santa Cruz), Paxillin (primary mAb clone Y113 from Millipore) for quantitation of focal adhesions, beta1 integrin, podocin, WT1 nephrin, CD2-AP may also be used. Other proteins may also be used for labeling. Appropriate secondary antibodies (fluorescently labeled) were used for fluorescent visualizations. High throughput confocal microscopy was done using the Opera LX (Perkin Elmer) with filters and exposure times according to manufacturer's instructions and as described before. Images were used in subsequent image analysis for quantitation of a variety of cellular parameters. Assays were performed in replicate wells for assay robustness.
Images for each frame of each well in multiple fluorescent channels were acquired using OPERA imaging system. […]

SMILES: O=S(=O)(NCC1CC1)c1ccc(Nc2nccc(N3CCCc4cc(O)ccc43)n2)cc1 [Pyrintegrin]
- podocyte motility and wound closure (mouse podocytes): significantly reduced podocyte motility and wound closure
- prevention of PAN induced injury, dose-response of percent damaged cells (FIG. 4A-4P) (murine podocytes; 30 ug/ml PAN, co-treatment, multi-parameter algorithm): prevented PAN induced injury
- EC50 (murine podocytes; PAN 16 μg/ml, 48 hours, F-actin fibers per cell (FIG. 8), read-out: apparent half-maximal effective concentration (EC50), protection from PAN-induced damage): 800 nM
- dose-dependent protection of podocytes from PAN-induced injury (murine podocytes; PAN 16-30 μg/ml, 48 hours, F-actin fibers and other parameters): dose dependently protected
- loss of actin stress fibers and focal adhesion complexes on PAN-induced injury (murine podocytes; PAN cotreatment (FIG. 9B)): protected podocytes from the loss of actin stress fibers and focal adhesion complexes
- actin stress fibers in healthy cells (murine podocytes; healthy cells, no PAN): small but significant increase in actin stress fibers
